Experimental data from ChEMBL document CHEMBL5126543, “Tandem construction of biological relevant aliphatic 5-membered N-heterocycles” (Eur J Med Chem, 2022).
≈ marks a conversion by molar mass, not a printed value. *1 amine or outer side, *2 acyl side, *3 side chain or, on linkers, in order; H or OH if unused. Where a SMILES comes first, the peptide text is derived from it. [ ]: non-standard residue; d: D form. Pro(trans-4-cHex) = O=C(O)[C@@H]1C[C@@H](C2CCCCC2)CN1; Pro(trans-4-Ph) = O=C(O)[C@@H]1C[C@@H](c2ccccc2)CN1; Pro(cis-4-OPh) = O=C(O)[C@@H]1C[C@H](Oc2ccccc2)CN1; X1 = CS[C@H]1C[C@@H](C(=O)[*:2])N([*:1])C1; Pro(4S-NH2) = N[C@@H]1CN[C@H](C(=O)O)C1

Key:
MCF7 = assay: Cytotoxicity against human MCF7 cells treated for 72 hrs by MTT assay; type: functional, cell-based; settings: MCF7, 72 h
SK-BR-3 = assay: Cytotoxicity against human SK-BR-3 cells treated for 72 hrs by MTT assay; type: functional, cell-based; settings: SK-BR-3, 72 h
PC-3 = assay: Cytotoxicity against human PC-3 cells treated for 72 hrs by MTT assay; type: functional, cell-based; settings: PC-3, 72 h
Priestia megaterium = assay: Antimicrobial activity against Bacillus megaterium Bm11 incubated for 18 to 20 hrs; type: functional; settings: time 18-20 hrs
Candida albicans = assay: Antimicrobial activity against Candida albicans ATCC 24433 incubated for 18 to 20 hrs; type: functional; settings: time 18-20 hrs
Escherichia coli = assay: Antimicrobial activity against Escherichia coli ATCC 25922 incubated for 18 to 20 hrs; type: functional; settings: time 18-20 hrs
[1] = test system: Staphylococcus epidermidis; assay: Antimicrobial activity against Staphylococcus epidermidis ATCC 12228 incubated for 18 to 20 hrs; type: functional; settings: time 18-20 hrs
Pseudomonas aeruginosa = assay: Antimicrobial activity against Pseudomonas aeruginosa ATCC 27853 incubated for 18 to 20 hrs; type: functional; settings: time 18-20 hrs
A549 = assay: Cytotoxicity against human A549 cells treated for 72 hrs by MTT assay; type: functional, cell-based; settings: A549, 72 h
HeLa = assay: Cytotoxicity against human HeLa cells treated for 72 hrs by MTT assay; type: functional, cell-based
MDA-MB-231 = assay: Antiproliferative activity against human MDA-MB-231 cells measured after 72 hrs by WST-1 assay; type: functional, cell-based; settings: MDA-MB-231, 72 h
SNB-19 = assay: Antiproliferative activity against human SNB-19 cells measured after 72 hrs by WST-1 assay; type: functional, cell-based; settings: SNB-19, 72 h
[2] = Cytotoxicity against HFF-1 cells measured after 72 hrs by WST-1 assay; type: toxicity, cell-based; settings: human
C32 = assay: Antiproliferative activity against human C32 cells measured after 72 hrs by WST-1 assay; type: functional, cell-based; settings: C32, 72 h

IC50 (MDA-MB-231) [µM]	Compound	IC50 (MCF7) [µM]	IC50 (SK-BR-3) [µM]	IC50 (PC-3) [µM]	IC50 (SNB-19) [µM]	IC50 at 72 h [2] [µM]	IC50 (C32) [µM]	also measured
	COc1cc2c(c(OC)c1OC)-c1ccc(OC)c(=O)cc1[C@@H](NC(C)=O)CC2 [COLCHICINE]	25	0.04	0.03				
	CC[C@H](C)[C@H](NC(=O)[C@H](CCCNC(=N)N)NC(=O)CNC(=O)[C@H](CC(C)C)NC(=O)[C@H](Cc1ccccc1)NC(=O)[C@H](CCCCN)NC(=O)[C@H](CO)NC(=O)[C@H](Cc1ccccc1)NC(=O)[C@H](Cc1c[nH]c2ccccc12)NC(=O)[C@H](CCC(N)=O)NC(=O)[C@@H]1C[C@H](Oc2ccccc2)CN1C(=O)[C@@H](NC(=O)[C@@H](N)Cc1ccccc1)C(C)C)C(=O)N[C@@H](CC(C)C)C(N)=O (H-FV[Pro(cis-4-OPh)]QWFSKFLGRIL-NH2)							MIC (Priestia megaterium): 3.12 µM (≈ 5.71 µg/mL); MIC (Candida albicans): 12.5 µM (≈ 22.9 µg/mL); MIC (Escherichia coli): 25 µM (≈ 45.7 µg/mL); MIC [1]: 3.12 µM (≈ 5.71 µg/mL); MIC (Pseudomonas aeruginosa): 50 µM (≈ 91.5 µg/mL)
	CC[C@H](C)[C@H](NC(=O)[C@H](CCCNC(=N)N)NC(=O)CNC(=O)[C@H](CC(C)C)NC(=O)[C@H](Cc1ccccc1)NC(=O)[C@H](CCCCN)NC(=O)[C@H](CO)NC(=O)[C@H](Cc1ccccc1)NC(=O)[C@H](Cc1c[nH]c2ccccc12)NC(=O)[C@H](CCC(N)=O)NC(=O)[C@@H]1C[C@@H](C2CCCCC2)CN1C(=O)[C@@H](NC(=O)[C@@H](N)Cc1ccccc1)C(C)C)C(=O)N[C@@H](CC(C)C)C(N)=O (H-FV[Pro(trans-4-cHex)]QWFSKFLGRIL-NH2)							MIC (Priestia megaterium): 3.12 µM (≈ 5.68 µg/mL); MIC (Candida albicans): 25 µM (≈ 45.5 µg/mL); MIC (Escherichia coli): 50 µM (≈ 91 µg/mL); MIC [1]: 3.12 µM (≈ 5.68 µg/mL); MIC (Pseudomonas aeruginosa): 100 µM (≈ 182 µg/mL)
	Clc1ccc(-c2cc(Nc3ccnc4cc(Cl)ccc34)ccc2CN2CCOCC2)cc1	170	2.98	11.7				IC50 (A549): > 200 µM; IC50 (HeLa): > 200 µM
	CC(C)(C)NCc1ccc(Nc2ccnc3cc(Cl)ccc23)cc1	> 250	37.3	149				IC50 (A549): 197 µM; IC50 (HeLa): 36 µM
	CC[C@H](C)[C@H](NC(=O)[C@H](CCCNC(=N)N)NC(=O)CNC(=O)[C@H](CC(C)C)NC(=O)[C@H](Cc1ccccc1)NC(=O)[C@H](CCCCN)NC(=O)[C@H](CO)NC(=O)[C@H](Cc1ccccc1)NC(=O)[C@H](Cc1c[nH]c2ccccc12)NC(=O)[C@H](CCC(N)=O)NC(=O)[C@@H]1C[C@H](SC)CN1C(=O)[C@@H](NC(=O)[C@@H](N)Cc1ccccc1)C(C)C)C(=O)N[C@@H](CC(C)C)C(N)=O (H-FV[X1]QWFSKFLGRIL-NH2)							MIC (Priestia megaterium): 3.12 µM (≈ 5.56 µg/mL); MIC (Candida albicans): 6.25 µM (≈ 11.1 µg/mL); MIC (Escherichia coli): 12.5 µM (≈ 22.3 µg/mL); MIC [1]: 3.12 µM (≈ 5.56 µg/mL); MIC (Pseudomonas aeruginosa): 25 µM (≈ 44.6 µg/mL)
	Clc1ccc2c(Nc3ccc(CN4CCCC4)c(-c4ccccc4)c3)ccnc2c1	7.99	0.009	44				IC50 (A549): 4.38 µM; IC50 (HeLa): < 1 µM
3.83	Cn1c(SCC#CCN2CCCC2)nc2nc(Cl)nc(SCC#CCN3CCCC3)c21				0.52	3.63	4.55	
19.9	Cn1cnc2nc(SCC#CCN3CCCC3)nc(SCC#CCN3CCCC3)c21				19.4	10	6.81	
10	CCN(CC)CC#CCSc1nc(Cl)nc2nc(SCC#CCN(CC)CC)n(C)c12				2.91	1	5.33	
	CC[C@H](C)[C@H](NC(=O)[C@H](CCCNC(=N)N)NC(=O)CNC(=O)[C@H](CC(C)C)NC(=O)[C@H](Cc1ccccc1)NC(=O)[C@H](CCCCN)NC(=O)[C@H](CO)NC(=O)[C@H](Cc1ccccc1)NC(=O)[C@H](Cc1c[nH]c2ccccc12)NC(=O)[C@H](CCC(N)=O)NC(=O)[C@@H]1C[C@H](N)CN1C(=O)[C@@H](NC(=O)[C@@H](N)Cc1ccccc1)C(C)C)C(=O)N[C@@H](CC(C)C)C(N)=O (H-FV[Pro(4S-NH2)]QWFSKFLGRIL-NH2)							MIC (Priestia megaterium): 3.12 µM (≈ 5.47 µg/mL); MIC (Candida albicans): 12.5 µM (≈ 21.9 µg/mL); MIC (Escherichia coli): 3.12 µM (≈ 5.47 µg/mL); MIC [1]: 3.12 µM (≈ 5.47 µg/mL); MIC (Pseudomonas aeruginosa): 3.12 µM (≈ 5.47 µg/mL)
	Clc1ccc(-c2cc(Nc3ccnc4cc(Cl)ccc34)ccc2CN2CCCC2)cc1	> 200	32.7	42.4				IC50 (A549): > 200 µM; IC50 (HeLa): 32 µM
	CC[C@H](C)[C@H](NC(=O)[C@H](CCCNC(=N)N)NC(=O)CNC(=O)[C@H](CC(C)C)NC(=O)[C@H](Cc1ccccc1)NC(=O)[C@H](CCCCN)NC(=O)[C@H](CO)NC(=O)[C@H](Cc1ccccc1)NC(=O)[C@H](Cc1c[nH]c2ccccc12)NC(=O)[C@H](CCC(N)=O)NC(=O)[C@@H]1C[C@@H](c2ccccc2)CN1C(=O)[C@@H](NC(=O)[C@@H](N)Cc1ccccc1)C(C)C)C(=O)N[C@@H](CC(C)C)C(N)=O (H-FV[Pro(trans-4-Ph)]QWFSKFLGRIL-NH2)							MIC (Priestia megaterium): 3.12 µM (≈ 5.66 µg/mL); MIC (Candida albicans): 12.5 µM (≈ 22.7 µg/mL); MIC (Escherichia coli): 12.5 µM (≈ 22.7 µg/mL); MIC [1]: 3.12 µM (≈ 5.66 µg/mL); MIC (Pseudomonas aeruginosa): 50 µM (≈ 90.7 µg/mL)
68.1	CCN(CC)CC#CCSc1nc2c(c(=O)[nH]c(=O)n2C)n1C				1.48	3.68	26.4	
	Clc1ccc2c(Nc3ccc(CN4CCCCC4)cc3)ccnc2c1	69.9	33.9	149				IC50 (A549): > 250 µM; IC50 (HeLa): < 1 µM
6.54	Cn1c(SCC#CCN2CCOCC2)nc2c1c(=O)[nH]c(=O)n2C				1.39	5.87	22.7	
38.5	CCN(CC)CC#CCSc1nc(SCC#CCN(CC)CC)c2c(ncn2C)n1				48.9	5.95	23.9	
